Test [1] relates to SK-BR-3. The test can be described thus: Cytotoxicity against human SK-BR-3 cells after 24 hrs by MTT assay relative to NS398. The test is classed as functional, cell-based. Conditions: SK-BR-3, 24 h.
The target of test [2] is T1, Prostaglandin G/H synthase 2 (Homo sapiens) (UniProt P35354).
T1 sequence (whole entry): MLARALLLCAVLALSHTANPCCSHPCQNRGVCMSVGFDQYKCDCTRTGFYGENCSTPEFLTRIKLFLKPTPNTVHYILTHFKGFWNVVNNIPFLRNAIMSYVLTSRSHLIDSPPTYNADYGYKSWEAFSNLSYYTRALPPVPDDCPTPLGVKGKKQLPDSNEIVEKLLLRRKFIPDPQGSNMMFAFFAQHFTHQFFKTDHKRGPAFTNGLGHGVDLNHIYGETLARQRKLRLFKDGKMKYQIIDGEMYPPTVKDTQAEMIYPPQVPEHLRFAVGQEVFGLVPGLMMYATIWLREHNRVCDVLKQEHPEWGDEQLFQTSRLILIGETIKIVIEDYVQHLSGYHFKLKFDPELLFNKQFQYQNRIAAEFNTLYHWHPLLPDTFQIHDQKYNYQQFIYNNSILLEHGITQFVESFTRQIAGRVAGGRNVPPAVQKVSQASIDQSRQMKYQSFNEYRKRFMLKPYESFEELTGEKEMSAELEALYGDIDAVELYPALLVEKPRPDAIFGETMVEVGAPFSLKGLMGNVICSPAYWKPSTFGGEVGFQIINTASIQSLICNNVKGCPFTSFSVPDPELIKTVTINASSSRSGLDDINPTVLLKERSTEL
The experiment in a line: Inhibition of COX2.

The structures appear in SMILES notation. The source made the active and inactive calls. The rule behind the calls is not given here.

With `CS(=O)(=O)Nc1ccc([N+](=O)[O-])cc1OC1CCCCC1` [NS-398], 720 nM corresponded to half-maximal inhibition in test [1] (IC50). In the case of `CN(c1ccc([N+](=O)[O-])cc1OCCC1CCCCC1)S(C)(=O)=O`, the result in test [2] was inactive. In test [1], it took 2540 nM to reach half-maximal inhibition (IC50). The corresponding values for `CN(c1ccc([N+](=O)[O-])cc1OC1CCCC1)S(C)(=O)=O` are “inactive” and 1090 nM. Take `CN(c1ccc([N+](=O)[O-])cc1OC1CCCCC1)S(C)(=O)=O`: the outcome in test [2] was inactive. This molecule showed an IC50 in test [1] of 660 nM. In the case of `CC(C)Oc1cc([N+](=O)[O-])ccc1N(C)S(C)(=O)=O`, the result in test [2] was inactive. Half-maximal inhibition in test [1] (IC50) was put at 1790 nM.

On to `CCCOc1cc([N+](=O)[O-])ccc1N(C)S(C)(=O)=O`, for which, in test [2], the outcome was inactive. Besides, in test [1], the IC50 turned out to be 1240 nM. The corresponding values for `CCC(CC)Oc1cc([N+](=O)[O-])ccc1N(C)S(C)(=O)=O` are “inactive” and 840 nM.

The record behind these values is ChEMBL document CHEMBL1146286, “Synthesis of carbon-11 labeled sulfonanilide analogues as new potential PET agents for imaging of aromatase in breast cancer” (Bioorg Med Chem Lett, 2007).
